# Assay results as given in ChEMBL document CHEMBL1201862, “PubChem BioAssay data set” (2004).
#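 Protocol summary: plate cells (96-well), add compound at 5 concentrations, incubate 48 h, interpolate endpoints linearly. GI50 = concentration required for 50% inhibition of growth.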 Activity calls are given as the source filed them. No stated cut-off is given here; in the data, active = GI50 up to about 1.1 µM and inactive = higher.
# Key:
# Assay in all cases: NCI tumour cell line growth inhibition, 48 h
# A549 = system: A549
# KM12 = system: KM12
# NCI-H23 = system: NCI-H23
# MDA-MB-435 = system: MDA-MB-435
# LOX IMVI = system: LOX IMVI
# A498 = system: A498
# HCT-15 = system: HCT-15
# T47D = system: T47D
# NCI-H522 = system: NCI-H522
# PC-3 = system: PC-3
# CAKI-1 = system: CAKI-1
# MDA-N = system: MDA-N
# SK-OV-3 = system: SK-OV-3
# RXF 393 = system: RXF 393
# HOP-62 = system: HOP-62
# UACC-62 = system: UACC-62
# OVCAR-4 = system: OVCAR-4
# HT-29 = system: HT-29
# ACHN = system: ACHN
# HCT-116 = system: HCT-116
# OVCAR-8 = system: OVCAR-8
# SW-620 = system: SW-620
# SF-268 = system: SF-268
# MDA-MB-231 = system: MDA-MB-231
# IGROV-1 = system: IGROV-1
# TK-10 = system: TK-10
# UO-31 = system: UO-31
# MCF7 = system: MCF7
# BT-549 = system: BT-549
# OVCAR-5 = system: OVCAR-5
# SK-MEL-28 = system: SK-MEL-28
# SNB-75 = system: SNB-75
# SK-MEL-2 = system: SK-MEL-2
# DU-145 = system: DU-145
# M14 = system: M14
# SNB-19 = system: SNB-19
# 786-0 = system: 786-0
# SN12C = system: SN12C
# NCI/ADR-RES = system: NCI/ADR-RES
# Malme-3M = system: Malme-3M
# Hs-578T = system: Hs-578T
# SF-295 = system: SF-295
# SF-539 = system: SF-539
# U-251 = system: U-251
# EKVX = system: EKVX
# UACC-257 = system: UACC-257
# K562 = system: K562
# NCI-H226 = system: NCI-H226
# NCI-H460 = system: NCI-H460
# MOLT-4 = system: MOLT-4
# COLO 205 = system: COLO 205
# HCC 2998 = system: HCC 2998
# RPMI-8226 = system: RPMI-8226
# HL-60 = system: HL-60
# OVCAR-3 = system: OVCAR-3
# CCRF-CEM = system: CCRF-CEM
# SR = system: SR
# SK-MEL-5 = system: SK-MEL-5
# HOP-92 = system: HOP-92
structure (smiles),measurement,setting,value
COCN1C(=O)[C@@H]2CCCN2C(=O)c2cc(OC)c(Cc3ccccc3)cc21,GI50,A549,83.6 µM (inactive)
same,GI50,KM12,> 100 µM (inactive)
same,GI50,NCI-H23,> 100 µM (inactive)
same,GI50,MDA-MB-435,70.1 µM (inactive)
same,GI50,LOX IMVI,> 100 µM (inactive)
same,GI50,A498,> 100 µM (inactive)
same,GI50,HCT-15,> 100 µM
same,GI50,T47D,43.3 µM (inactive)
same,GI50,NCI-H522,83.9 µM (inactive)
same,GI50,PC-3,74.5 µM (inactive)
same,GI50,CAKI-1,> 100 µM (inactive)
same,GI50,MDA-N,> 100 µM (inactive)
same,GI50,SK-OV-3,> 100 µM (inactive)
same,GI50,RXF 393,34.3 µM (inactive)
same,GI50,HOP-62,> 100 µM (inactive)
same,GI50,UACC-62,> 100 µM (inactive)
same,GI50,OVCAR-4,43.7 µM (inactive)
same,GI50,HT-29,93.3 µM (inactive)
same,GI50,ACHN,> 100 µM (inactive)
same,GI50,HCT-116,62.4 µM (inactive)
same,GI50,OVCAR-8,> 100 µM (inactive)
same,GI50,SW-620,> 100 µM (inactive)
same,GI50,SF-268,> 100 µM (inactive)
same,GI50,MDA-MB-231,49.5 µM (inactive)
same,GI50,IGROV-1,62.7 µM (inactive)
same,GI50,TK-10,> 100 µM (inactive)
same,GI50,UO-31,57 µM (inactive)
same,GI50,MCF7,61.5 µM (inactive)
same,GI50,BT-549,81.8 µM (inactive)
same,GI50,OVCAR-5,> 100 µM (inactive)
same,GI50,SK-MEL-28,> 100 µM (inactive)
same,GI50,SNB-75,60.4 µM (inactive)
same,GI50,SK-MEL-2,> 100 µM (inactive)
same,GI50,DU-145,> 100 µM (inactive)
same,GI50,M14,> 100 µM (inactive)
same,GI50,SNB-19,> 100 µM (inactive)
same,GI50,786-0,> 100 µM (inactive)
same,GI50,SN12C,> 100 µM (inactive)
same,GI50,NCI/ADR-RES,> 100 µM (inactive)
same,GI50,Malme-3M,> 100 µM (inactive)
same,GI50,Hs-578T,> 100 µM (inactive)
same,GI50,SF-295,> 100 µM (inactive)
same,GI50,SF-539,> 100 µM (inactive)
same,GI50,U-251,94.6 µM (inactive)
same,GI50,EKVX,> 100 µM (inactive)
same,GI50,UACC-257,> 100 µM (inactive)
COC(=O)c1c2c(cc3c1CCC3)CCC2,GI50,A549,61.2 µM (inactive)
same,GI50,KM12,65.3 µM (inactive)
same,GI50,NCI-H23,80.7 µM (inactive)
same,GI50,K562,29.6 µM (inactive)
same,GI50,NCI-H226,54.7 µM (inactive)
same,GI50,NCI-H460,94.6 µM (inactive)
same,GI50,MDA-MB-435,70.8 µM (inactive)
same,GI50,LOX IMVI,39.4 µM (inactive)
same,GI50,A498,28.6 µM (inactive)
same,GI50,HCT-15,57.8 µM
same,GI50,T47D,13.3 µM (inactive)
same,GI50,NCI-H522,46.6 µM (inactive)
same,GI50,PC-3,44.7 µM (inactive)
same,GI50,CAKI-1,72.4 µM (inactive)
same,GI50,MDA-N,55.3 µM (inactive)
same,GI50,SK-OV-3,91.4 µM (inactive)
same,GI50,HOP-62,> 100 µM (inactive)
same,GI50,MOLT-4,21.6 µM (inactive)
same,GI50,UACC-62,51.1 µM (inactive)
same,GI50,OVCAR-4,82.2 µM (inactive)
same,GI50,HT-29,26.3 µM (inactive)
same,GI50,ACHN,> 100 µM (inactive)
same,GI50,HCT-116,39.6 µM (inactive)
same,GI50,COLO 205,96.2 µM (inactive)
same,GI50,OVCAR-8,> 100 µM (inactive)
same,GI50,SW-620,> 100 µM (inactive)
same,GI50,SF-268,95.7 µM (inactive)
same,GI50,HCC 2998,59.4 µM (inactive)
same,GI50,MDA-MB-231,37.7 µM (inactive)
same,GI50,IGROV-1,> 100 µM (inactive)
same,GI50,RPMI-8226,20.2 µM (inactive)
same,GI50,HL-60,15.5 µM (inactive)
same,GI50,OVCAR-3,> 100 µM (inactive)
same,GI50,TK-10,57.4 µM (inactive)
same,GI50,UO-31,72.8 µM (inactive)
same,GI50,MCF7,38.7 µM (inactive)
same,GI50,CCRF-CEM,20.1 µM (inactive)
same,GI50,BT-549,95.9 µM (inactive)
same,GI50,OVCAR-5,> 100 µM (inactive)
same,GI50,SK-MEL-28,53.6 µM (inactive)
same,GI50,SNB-75,28.4 µM (inactive)
same,GI50,SK-MEL-2,24.8 µM (inactive)
same,GI50,DU-145,65.8 µM (inactive)
same,GI50,M14,> 100 µM (inactive)
same,GI50,SNB-19,> 100 µM (inactive)
same,GI50,786-0,80.7 µM (inactive)
same,GI50,SN12C,> 100 µM (inactive)
same,GI50,NCI/ADR-RES,> 100 µM (inactive)
same,GI50,Malme-3M,48.2 µM (inactive)
same,GI50,Hs-578T,35.8 µM (inactive)
same,GI50,SF-295,29.9 µM (inactive)
same,GI50,SF-539,92.7 µM (inactive)
same,GI50,U-251,51.9 µM (inactive)
same,GI50,SR,18.2 µM (inactive)
same,GI50,EKVX,39.6 µM (inactive)
same,GI50,UACC-257,48 µM (inactive)
same,GI50,SK-MEL-5,15.9 µM (inactive)
O=c1[nH]c(Nc2ccc(Br)c(C(F)(F)F)c2)nc2[nH]cnc12,GI50,A549,72.1 µM (inactive)
same,GI50,KM12,29 µM (inactive)
same,GI50,NCI-H23,38.5 µM (inactive)
same,GI50,NCI-H226,47.5 µM (inactive)
same,GI50,NCI-H460,45.2 µM (inactive)
same,GI50,MDA-MB-435,30.7 µM (inactive)
same,GI50,LOX IMVI,39.1 µM (inactive)
same,GI50,A498,33.4 µM (inactive)
same,GI50,HCT-15,76 µM
same,GI50,T47D,32.7 µM (inactive)
same,GI50,HOP-92,26.4 µM (inactive)
same,GI50,NCI-H522,18.5 µM (inactive)
same,GI50,PC-3,37.7 µM (inactive)
same,GI50,CAKI-1,50 µM (inactive)
same,GI50,MDA-N,34.4 µM (inactive)
same,GI50,SK-OV-3,45.1 µM (inactive)
same,GI50,HOP-62,48.8 µM (inactive)
same,GI50,MOLT-4,32 µM (inactive)
same,GI50,UACC-62,23.8 µM (inactive)
same,GI50,OVCAR-4,47.1 µM (inactive)
same,GI50,HT-29,27.6 µM (inactive)
same,GI50,ACHN,43.4 µM (inactive)
same,GI50,HCT-116,48.4 µM (inactive)
same,GI50,COLO 205,20.8 µM (inactive)
same,GI50,OVCAR-8,42.9 µM (inactive)
same,GI50,SW-620,57.9 µM (inactive)
same,GI50,SF-268,28.5 µM (inactive)
same,GI50,HCC 2998,17.9 µM (inactive)
same,GI50,MDA-MB-231,63.8 µM (inactive)
same,GI50,IGROV-1,40.4 µM (inactive)
same,GI50,RPMI-8226,47.3 µM (inactive)
same,GI50,HL-60,26 µM (inactive)
same,GI50,OVCAR-3,31.8 µM (inactive)
same,GI50,TK-10,83.9 µM (inactive)
same,GI50,UO-31,43.9 µM (inactive)
same,GI50,MCF7,51.5 µM (inactive)
same,GI50,CCRF-CEM,43.8 µM (inactive)
same,GI50,BT-549,62.7 µM (inactive)
same,GI50,OVCAR-5,32.3 µM (inactive)
same,GI50,SK-MEL-28,36.6 µM (inactive)
same,GI50,SNB-75,25.6 µM (inactive)
same,GI50,SK-MEL-2,20.2 µM (inactive)
same,GI50,DU-145,55 µM (inactive)
same,GI50,M14,30.5 µM (inactive)
same,GI50,SNB-19,39.6 µM (inactive)
same,GI50,786-0,40.1 µM (inactive)
same,GI50,SN12C,43.3 µM (inactive)
same,GI50,NCI/ADR-RES,> 100 µM (inactive)
same,GI50,Malme-3M,38.8 µM (inactive)
same,GI50,Hs-578T,13.1 µM (inactive)
same,GI50,SF-295,54.1 µM (inactive)
same,GI50,SF-539,34.5 µM (inactive)
same,GI50,U-251,36.1 µM (inactive)
same,GI50,SR,37.1 µM (inactive)
same,GI50,EKVX,80.2 µM (inactive)
same,GI50,UACC-257,82 µM (inactive)
same,GI50,SK-MEL-5,29.9 µM (inactive)
